Results on 93 compounds are retold here after a melting point compilation (Tetko et al.; mined from patent text by program, amines drawn as free bases though some values may be those of a salt).

In general, melting point refers to the temperature, or range, at which the solid turns liquid.

Compound `COc1ccc(CC(=O)c2ccc(OC)cc2OC)cc1` showed a melting point of 78.5 to 79.5 °C.

The compound `O=C(O)c1c2nc3ccccc3c-2[nH]c2ccc(F)cc12` came in with a melting point of over 243 °C.

In the case of `Clc1c(I)c(Cl)c(I)c(Cl)c1I`, the melting point was over 300 °C.

The compound `Cn1cc(-c2nnc(-c3ccncc3)o2)c2ccccc21` had a melting point of 212 to 214 °C.

As to `CN1CCCC1COc1ccc(-c2cccc(N)n2)c2ccccc12` (stereo not drawn), the melting point was 80 to 95 °C.

As for `N=C(Nc1ccccc1)Nc1ncccc1OCc1c(F)cccc1Cl`, the melting point was 147 to 149 °C.

With `Oc1ccccc1C=NC1=NN(c2cccc(C(F)(F)F)c2)CC1`, the melting point was found to be 156 °C.

Consider `O=C1CCc2c(Cl)cc(Cl)c(OS(=O)(=O)C(F)(F)F)c21`, for which the melting point lay in the range of 90 to 96 °C.

Regarding `COc1cc2nc(N)nc(-c3ccc(O)cc3Cl)c2cc1OC`, the melting point fell in the range of 245 to 247 °C.

With `CC(=O)c1nc2ccc(Oc3ccccc3)cc2cc1O`, the melting point is 131 to 133 °C.

`COc1cc2ncc(C#N)c(Nc3ccc4c(C)cc(=O)[nH]c4c3)c2cc1OC` returned a melting point of over 300 °C.

Regarding `CC1OC(OC2C=C(Br)C(=O)C(C)O2)C=C(Br)C1=O` (stereo not drawn), the melting point was found to be 125 °C.

As to `CCOC(=O)C(=O)Nc1ccc(C(=O)NC2CCN(C3CCCCC3)C2)cc1` (stereo not drawn), the melting point was in the range of 138 to 141 °C.

`COc1cc2sc(C)nc2cc1C`: the melting point was 89 to 90 °C.

Regarding `CCCCNC(=O)NS(=O)(=O)c1c(C(=O)OC)cnn1C`, the melting point was in the range of 88 to 90 °C.

In turn, `CNC(=O)ON=C1SCS(=O)CS1` (stereo not drawn) yielded a melting point of 175 to 177 °C.

`COC(CCCNC(=O)C=CC(=O)NCCCC(OC)OC)OC` came in with a melting point of 170 to 172 °C.

`COc1ccc(C#N)c(F)c1OC`: the melting point was in the range of 64 to 65 °C.

Compound `CC(C)(O)[C@H](N)c1ccccc1` came in with a melting point of 49 °C.

`Cc1cc(O)cc2c1N(C)C1N(C)CCC21C` (stereo not drawn) gave a melting point of 146 to 148 °C.

In the case of `CC(C)(CO)NC(=O)c1nn(C2CCCCO2)cc1NC(=O)c1ccccn1` (stereo not drawn), the melting point lay within 194 to 195 °C.

In turn, `Oc1ccc(C2CC(c3ccc(O)cc3)C2)cc1` (stereo not drawn) registered a melting point of 148 to 164 °C.

Compound `CCc1ccc(S(=O)(=O)N(c2ccc(Cl)cc2[N+](=O)[O-])C(C)C)cc1` came in with a melting point of 117 to 118 °C.

In the case of `O=[N+]([O-])C=C1SCCN1Cc1ccccc1`, the melting point was 136 to 138 °C.

`CCOP(=O)(COCCOn1cnc2c(N)ncnc21)OCC`: the melting point lay in the range of 74 to 76 °C.

For `CCC(CN1CCCC1)C(C#N)(c1ccccc1)c1ccccc1` (stereo not drawn), the melting point was 90 °C.

With `CCN(CCO)CC(C)N1c2ccccc2Sc2ccc(C(=S)NCc3ccccc3)cc21` (racemic), the melting point was determined as 154 °C.

The compound `O=c1[nH]c(=O)n2c3c(cccc13)S(=O)c1ccc(C(F)(F)F)cc1-2` (stereo not drawn) came in with a melting point of 302 to 304 °C.

Regarding `O=C(O)CCc1c(Sc2ccccc2)c2cc(F)ccc2n1Cc1ccc(Cl)cc1`, the melting point lay in the range of 138 to 139 °C.

For `O=c1oc(-c2ccccc2)cc(O)c1SCc1ccc(OCc2ccccc2)cc1`, the melting point lay in the range of 185 to 186 °C.

`CON=C(C(=O)O)c1nsc(NC=O)n1` gave a melting point of 185 to 186 °C.

In turn, `O=S(=O)(Cl)c1ccc(Nc2nccc(-c3ccc(C(F)(F)F)cc3)n2)cc1` had a melting point of 186 to 188 °C.

`O=C(O)C1=Cc2cc(Cl)c(Sc3ccc(Cl)cc3)cc2OC1C(F)(F)F` (stereo not drawn) displayed a melting point of 252 to 253 °C.

With `O=C(NC(CC12CC3CC(CC(C3)C1)C2)Nc1c(Nc2cccnc2)c(=O)c1=O)c1ccccc1Cl` (stereo not drawn), the melting point lay within 224 to 225 °C.

In the case of `CCn1nc2c(N)nc3ccccc3c2c1CC1(O)CCOCC1`, the melting point was in the range of 253 to 255 °C.

In turn, `CCCn1cc2c(C3C(=O)Nc4ccc(Br)cc43)nc(NCCN(C)C)nc2n1` (stereo not drawn) gave a melting point of 270 to 274 °C.

`Cc1oc(-c2ccco2)nc1/C=C/c1ccc(C=O)cc1` returned a melting point of 209 to 210 °C.

For `Cc1ccc(OCC(=O)c2ccc3c(c2)C(C)(C)CCC3(C)C)cc1O`, the melting point lay in the range of 144 to 145 °C.

Regarding `CN(C)CCCCCC(=O)O`, the melting point was 89 to 91 °C.

`COCCOCCOCC(=O)Nc1cc(C(=O)O)cc([N+](=O)[O-])c1` gave a melting point of 136 to 137 °C.

On to `Cc1cc(-c2nnc(C(C)(C)C)o2)ccc1[N+](=O)[O-]`, for which the melting point is 123 to 125 °C.

Compound `COc1cccc(NC(=O)CC23CC4CC(CC(C4)C2)C3)c1C` came in with a melting point of 173 to 175 °C.

For `O=C1SCCN1Cc1ccccc1`, the melting point fell in the range of 50 to 51 °C.

Regarding `CCCNC(=O)c1cc(-c2ccc(OC)cc2)nn(CC2CCCC2)c1=O`, the melting point stood at 110 °C.

`COC(=O)c1cn2c(C)csc2n1` returned a melting point of 170 to 173 °C.

As for `CN1CC(=O)C(C#N)=C1N`, the melting point was 300 °C.

In the case of `Cc1c(C(=O)Nc2ccc(-c3ccc(S(=O)(=O)NC(C(=O)O)C(C)C)cc3)cc2)oc2ccccc12` (stereo not drawn), the melting point lay in the range of 264 to 266 °C.

Consider `CC1(C)OC(c2ccc(S(C)(=O)=O)cc2)=C(c2cc3ccccc3o2)C1=O`, for which the melting point fell in the range of 140 to 141 °C.

In turn, `CCn1cc(C(=O)NCc2ccc(Cl)cc2)c(=O)c2cc(CN(C)C[C@@H](O)c3ccco3)sc21` registered a melting point of 123 to 127 °C.

Compound `CCSCCn1cc(C(=O)NCc2ccc(Cl)cc2)c(=O)c2cc(CN3CCOCC3)ccc21` yielded a melting point of 140 to 142 °C.

On to `COc1cc(CN2CCN(C(=O)c3ccc4c(c3)C(=O)c3ccccc3C4=O)CC2)cc(OC)c1OC`, for which the melting point fell in the range of 158 to 160 °C.

In turn, `O=[N+]([O-])CCc1[nH]ccc1-c1ccc(I)cc1` registered a melting point of 88 to 89 °C.

In turn, `O=C1CCC(c2ccccc2)=NN1c1cc(-c2ccnc(Nc3cccc(Cl)c3)n2)ccn1` had a melting point of 144 to 146 °C.

Compound `CCn1nc(C(F)(F)F)c(CS(=O)(=O)C2=NOC(C)(CCl)C2)c1C#N` (stereo not drawn) gave a melting point of 76 to 78 °C.

`Oc1ccc(-c2nc(-c3ccc(Br)cc3)nc(-c3ccc(O)cc3O)n2)c(O)c1` had a melting point of 222 to 224 °C.

`CCCCCCCCCCCCCCCCn1cccc1C1=CC(=O)c2ccccc2C1=O` registered a melting point of 56 to 57 °C.

In the case of `CCC(Cl)(CC)C(CO)N=O` (stereo not drawn), the melting point is 130 °C.

In the case of `COc1cc(Oc2cccc(C)n2)c(C=CC(=O)c2ccc(S(N)(=O)=O)cc2)cc1-c1cccs1`, the melting point fell in the range of 164 to 165 °C.

`O=C(NCC(F)(F)F)NCC(F)(F)F` registered a melting point of 154 to 155 °C.

Compound `NC(=O)c1cc2c(Oc3cccc(C(F)(F)F)c3)cncc2s1` showed a melting point of 175 to 176 °C.

For `CCOP(=O)(OCC)C(Cc1cc(C)c(O)c(OC)c1)c1cccnc1` (stereo not drawn), the melting point is 85 to 87 °C.

In turn, `COC(=O)CCCc1ccc(C(=O)Cc2ccccc2)cc1` showed a melting point of 54 to 54.5 °C.

The compound `COc1ccccc1Oc1ccc([N+](=O)[O-])cc1C(=O)O` had a melting point of 162 to 165 °C.

As to `CCC=NNC=C(C(=O)OCC)C(=O)c1cc(F)c(F)c(F)c1F`, the melting point worked out at 86 °C.

`CCOC(=O)C1=C(C)NC(C)=C(C(=O)OC)C1c1cccc(C(F)(F)F)c1` (single isomer, unassigned; (-)): the melting point lay within 134 to 135 °C.

In the case of `Cn1c(-c2ccc(OCC3CO3)cc2)nnc1C(F)(F)F` (stereo not drawn), the melting point lay in the range of 104 to 106 °C.

Regarding `CC(=O)Nc1cccc(/C=C/C(=O)O)c1C`, the melting point lay within 265 to 267 °C.

With `COc1ccc2c(Cc3c(Cl)cncc3Cl)nnc(-n3ccnc3)c2c1`, the melting point was over 250 °C.

Regarding `CCOC(=O)c1cc(-c2ccc(OC)cc2)n(-c2ccc(OC)cc2)n1`, the melting point is 97 to 98 °C.

`COC(=O)c1ccc(Cl)c(C=O)c1SC` yielded a melting point of 66.5 to 68.1 °C.

Turning to `c1ccc(-c2[nH]c3ccccc3c2CCC2CCNCC2)cc1`, the melting point came out at 183 °C.

Compound `CC12CCC3C(CC=C4CC(O)CCC43C)C1=CCC2=O` (stereo not drawn) had a melting point of 161 to 164 °C.

With `O=C(N=c1sc2cc(OC(F)(F)F)ccc2n1CCO)C(F)(F)F`, the melting point came out at 144 °C.

Regarding `CN1CCc2cccc3c4c(n(c23)CC1)CCSC4`, the melting point is 123 to 125 °C.

The compound `N#CC1=C(c2cc3ccccc3o2)Nc2n[nH]cc2C1c1cccc2nonc12` (stereo not drawn) returned a melting point of over 270 °C.

Turning to `O=C(O)c1cc([N+](=O)[O-])ccc1OC(F)(F)F`, the melting point lay in the range of 134 to 135 °C.

`O=C(c1cc2c(cc1Cl)OCO2)N1CCOCC1` registered a melting point of 155 °C.

The compound `O=C(Cn1c(-c2ccc(Cl)cc2)nc2cccnc21)N1CCCCC1` displayed a melting point of 176 to 178 °C.

In turn, `O=S1NC(Cc2ccc3c(c2)OCO3)=NO1` (stereo not drawn) registered a melting point of 132 to 133 °C.

The compound `COc1ccc2cc([C@H](C)C(=O)OC(C)C(=O)NCC(=O)O)ccc2c1` (stereo partly drawn) yielded a melting point of 174 to 175 °C.

On to `CCOC(=O)Cc1sc(S)nc1-c1ccc(Cl)cc1`, for which the melting point lay in the range of 176 to 178 °C.

`CC(C)c1ccc(C(=O)Cl)cc1S(N)(=O)=O` showed a melting point of 177 °C.

For `Clc1ccc(N=C2NCCN2)c(Cl)c1Cl`, the melting point is 161 °C.

The compound `Cc1ccc(S(=O)(=O)n2c(CCCC(=O)O)cc3nc(Cl)ccc32)c(Cl)c1` gave a melting point of 168 to 169 °C.

On to `NCCc1coc2ccc3c(c12)CCCO3`, for which the melting point worked out at 110 °C.

Take `FC(F)(F)c1cc(Br)c2nc(C(F)(F)F)[nH]c2c1`: the melting point lay within 127 to 130 °C.

Consider `CC1=C(CC(=O)O)c2cc(F)c(F)cc2C1=Cc1ccc(S(C)=O)cc1` (stereo not drawn), for which the melting point lay in the range of 200 to 210 °C.

`CCOC(=O)c1cc(=O)c2cc(C(=O)OCC)c(C(=O)OCC)nc2o1`: the melting point came to 106 °C.

Take `Cc1ccc(C(=O)O)c(NC(=O)CCCCNC(=O)OC(C)(C)C)c1`: the melting point amounted to 212 °C.

Compound `COc1ccc(-c2nc(C)cc(OCCN3CCN(C(c4ccccc4)c4ccccc4)CC3)n2)cc1` displayed a melting point of 132 to 133 °C.

In turn, `CC(=O)OCC(=O)Nc1cccc(-c2nnc(C(c3ccc(Cl)cc3)c3c(Cl)ccc(-n4ncc(=O)[nH]c4=O)c3Cl)o2)c1C` (stereo not drawn) gave a melting point of 206 °C.

`CCc1cc(C(=O)OC(C)C)c2cc(C(C)C)cccc1-2` came in with a melting point of 69 to 71 °C.

`CCCCCCCCCCCCCCCCCCC1CNc2ccc(C(=O)O)cc21` (racemic) had a melting point of 84 to 87 °C.
